Data published in article PMC12473540, “Cytotoxic Activity of Chemical Constituents of Clerodendrum glabrum and Combretum nelsonii Root Extracts Against Selected Cancer Cell Lines” (Plants, 2025).
Converted amounts (≈) assume the structure as drawn. Read-outs that look alike come from different tables or passages of the source.

What was measured:
in vitro [1] = experiment: in vitro
Description: (§1) The antiproliferative activity of the crude extracts and compounds isolated from C. glabrum and C. nelsonii were tested against heterogenous human epithelial colorectal adenocarcinoma (Caco-2) and hormone receptor positive breast cancer (MCF-7) cells using the MTT assay. The Vero African green monkey kidney cells were used as the non-cancerous cell line for comparison. Doxorubicin was used as the positive control.
(§2) The cytotoxic activity of extracts and isolated compounds was evaluated using the MTT assay against colorectal adenocarcinoma (Caco-2, ATCC® HTB-37™), breast adenocarcinoma (MCF-7, ATCC® HTB-22™), and non-cancerous monkey kidney cells (Vero, ATCC® CCL-81™). Cell culture and maintenance were carried out following standard protocols. The cells were seeded in 96-well plates and exposed to varying concentrations of extracts (0.025–1 mg/mL) and compounds (0.2–200 µg/mL) for 48 h. Doxorubicin was used as a positive control, and DMSO as a negative control. Cell viability was determined by MTT reduction and absorbance was measured at 570 nm. LC50 values were calculated, and the selectivity index(SI) was obtained by dividing LC50 values of Vero cells by those of the cancer cell lines.

pancreas-a (BXPC-3) = system: pancreas-a (BXPC-3); design: method as in ref 50 = [50]; 50. Akim A. Biological Activities of Oryzanol, Stigmasterol and Microminutinin on Human Breast Cancer Cell-Line, MCF-7 Ph.D. Thesis University Putra Malaysia Serdang, Malaysia 2004; details: cited from earlier work
colon (KM20L2) = system: colon (KM20L2); design: method as in ref 50 = [50]; 50. Akim A. Biological Activities of Oryzanol, Stigmasterol and Microminutinin on Human Breast Cancer Cell-Line, MCF-7 Ph.D. Thesis University Putra Malaysia Serdang, Malaysia 2004; details: cited from earlier work
tubulin = system: tubulin; design: method as in PMID 12059907, PMID 10893310; details: combretastatin A-1; read-out: Tubulin inhibition IC50; cited from earlier work
leukemia (P388) = system: leukemia (P388); design: method as in ref 50 = [50]; 50. Akim A. Biological Activities of Oryzanol, Stigmasterol and Microminutinin on Human Breast Cancer Cell-Line, MCF-7 Ph.D. Thesis University Putra Malaysia Serdang, Malaysia 2004; details: cited from earlier work
[2] = system: hormone receptor positive breast cancer (MCF-7) cells; experiment: MTT cytotoxicity assay on MCF-7 cells; details: for CC50: Homo sapiens, MCF7, 48 h, read-out: MCF-7 (LC50); for Selectivity Index MCF-7: LC50 of Vero cells divided by LC50 of MCF-7
Description: as §1
as §2, with “The cells were seeded in 96-well plates and exposed to varying concentrations of extracts (0.025–1 mg/mL) and compounds (0.2–200 µg/mL) for 48 h.” left out

prostate (DU-145) = system: prostate (DU-145); design: method as in ref 50 = [50]; 50. Akim A. Biological Activities of Oryzanol, Stigmasterol and Microminutinin on Human Breast Cancer Cell-Line, MCF-7 Ph.D. Thesis University Putra Malaysia Serdang, Malaysia 2004; details: cited from earlier work
lung-NCS (NCI-H460) = system: lung-NCS (NCI-H460); design: method as in ref 50 = [50]; 50. Akim A. Biological Activities of Oryzanol, Stigmasterol and Microminutinin on Human Breast Cancer Cell-Line, MCF-7 Ph.D. Thesis University Putra Malaysia Serdang, Malaysia 2004; details: cited from earlier work
[3] = system: human epithelial colorectal adenocarcinoma (Caco-2) cells; experiment: MTT cytotoxicity assay on Caco-2 cells; details: for CC50: Homo sapiens, Caco-2, 48 h, read-out: Caco-2 (LC50)
Description: as §1, §2

in vitro [4] = details: African green monkey (Vero) and human (Caco-2), Caco-2
Description: as §1, §2

[5] = system: triple negative breast cancer HCC70 cells; design: method as in doi:10.4314/ecajps.v11i2.44769; details: stigmasterol; cited from earlier work
MCF-7 = details: cited from earlier work
colon cancer cell Caco-2 = system: colon cancer cell Caco-2; design: method as in doi:10.4314/ecajps.v11i2.44769; details: stigmasterol; cited from earlier work
[6] = system: human colon carcinoma SW620 cell lines; details: stigmasterol, in Table 2; cited from earlier work
[7] = system: gastric adenocarcinoma AGS cells; details: cited from earlier work
[8] = system: prostate cancer PC3 cells; design: method as in doi:10.18063/cp.v1i4.255, PMID 20614808, PMID 25355727, doi:10.1076/phbi.37.2.148.6082; details: ferruginol; read-out: Literature report PC3 (IC50); cited from earlier work
[9] = system: human liver hepatocellular carcinoma HepG2 cells; design: method as in doi:10.18063/cp.v1i4.255, PMID 20614808, PMID 25355727, doi:10.1076/phbi.37.2.148.6082; details: ferruginol; read-out: Literature report HepG2 (IC50); cited from earlier work
[10] = system: colon (COL-2) cancer cells; design: method as in doi:10.18063/cp.v1i4.255, PMID 20614808, PMID 25355727, doi:10.1076/phbi.37.2.148.6082; details: ferruginol; cited from earlier work
human colon HCT116 = system: human colon HCT116; design: method as in doi:10.4103/pm.pm_265_20; details: royleanone, result in words; cited from earlier work
[11] = system: breast MDA-MB-231 cancer cell lines; design: method as in doi:10.4103/pm.pm_265_20; details: royleanone; read-out: Literature report MDA-MB-231 IC50; cited from earlier work
[12] = system: prostate cancer cells (LNCaP); design: method as in ref 45 (ref 58); details: royleanone; ref 45 (ref 58); read-out: Literature report LNCaP IC50; cited from earlier work
[13] = African green monkey, Vero kidney cells (ATCC CCL-81), non-cancerous

For COc1ccc(/C=C\c2cc(OC)c(OC)c(OC)c2)c(O)c1O [Compound 4, 3,4,5-trimethoxy-2′,3′hydroxyl-4′methoxy-stilbene], the CC50 at 48 h (in vitro [1]) is listed as 15.3 µg/mL (≈ 46 µM), the “BXPC-3 GI50” value (pancreas-a (BXPC-3)) is listed as 4.4 µg/mL and the “KM20L2 GI50” value (colon (KM20L2)) is listed as 0.061 µg/mL. For the same compound, the IC50 (tubulin) was 1.1 µM, the “P388 GI50” value (leukemia (P388)) was 0.3 µg/mL and the CC50 [2] was 72 µg/mL (≈ 217 µM). For the same compound, the “Selectivity Index MCF-7” value [2] was 0.210, the “DU-145 GI50” value (prostate (DU-145)) was 0.017 µg/mL and the “NCI-H460 GI50” value (lung-NCS (NCI-H460)) was 0.74 µg/mL.
For COc1cccc2c1C(=O)c1c(O)c3c(c(O)c1C2=O)C[C@@](O)(C(=O)CO)C[C@@H]3O[C@H]1C[C@H](N)[C@H](O)[C@H](C)O1 [Doxorubicin, reference compound], the CC50 at 48 h (in vitro [1]; African green monkey) was 6.9 µg/mL (≈ 12.7 µM), the CC50 [3] was 0.76 µg/mL (≈ 1.4 µM) and the selectivity ratio at 48 h (in vitro [4]) was 9.08. The CC50 [2] was 3.1 µg/mL (≈ 5.7 µM) and the “Selectivity Index MCF-7” value [2] was 2.20.
For COc1ccc(CCc2cc(OC)c(OC)c(OC)c2)c(OC2OC(CO)C(O)C(O)C2O)c1O [Compound 5b, combretastatin B-1-2′-O-β-D-glucopyranoside], the CC50 at 48 h (in vitro [1]; [13]) was 83.8 µg/mL (≈ 169 µM), the CC50 [2] was 44.1 µg/mL (≈ 88.8 µM) and the “Selectivity Index MCF-7” value [2] was 1.90.
For CC[C@H](C=C[C@@H](C)[C@H]1CC[C@H]2[C@@H]3CC=C4C[C@@H](O)CC[C@]4(C)[C@H]3CC[C@]12C)C(C)C [Compound 6, stigmasta-5,22-dien-3β-ol], the CC50 at 48 h (in vitro [1]) is given as 137 µg/mL (≈ 332 µM), the IC50 [5] is given as over 500 µM and the CC50 [3] is given as over 200 µg/mL. For the same compound, the selectivity ratio at 48 h (in vitro [4]) was under 0.69, the IC50 (MCF-7; stigmasterol, read-out: MCF-7 IC50) was over 500 µM and the IC50 (colon cancer cell Caco-2) was 132 µM. For the same compound, the CC50 [2] was over 200 µg/mL, the “Selectivity Index MCF-7” value [2] was under 0.690 and the IC50 [6] was 2.79 µM.
For CC(C)c1cc2c(cc1O)[C@@]1(C)CCCC(C)(C)[C@@H]1CC2 [Compound 1, 12-hydroxy-abieta-8,11,13-triene], the CC50 at 48 h (in vitro [1]; African green monkey) is given as 0.0002 µg/mL (≈ 0.000698 µM), the IC50 ([7]; ferruginol, read-out: Literature report AGS (IC50)) is given as 27 µM and the “Selectivity Index Caco-2” value ([3]; Caco-2) is given as 8.23 × 10^−6. The CC50 [3] was 24.3 µg/mL (≈ 84.8 µM), the IC50 [8] was 55 µM and the IC50 (MCF-7; ferruginol, read-out: Literature report MCF-7 (IC50)) was 12 µM. For the same compound, the IC50 [9] was 68.5 µM, the “Literature report colon (COL-2) ED50” value [10] was over 20 µg/mL and the CC50 [2] was 48.4 µg/mL (≈ 169 µM).
In the case of CC(C)C1=C(O)C(=O)C2=C(CC[C@H]3C(C)(C)CCC[C@]23C)C1=O [Compound 2, 12-hydroxy-8,12-abietadiene-11,14-dione], the CC50 at 48 h (in vitro [1]) is listed as 30.7 µg/mL (≈ 97 µM), the IC50 ([7]; royleanone, read-out: Literature report AGS IC50) is listed as 18 µM and the CC50 [3] is listed as over 200 µg/mL. The selectivity ratio at 48 h (in vitro [4]) was under 0.15, the “Literature report colon HCT116” value (human colon HCT116) was “variable” and the CC50 [2] was over 200 µg/mL. For the same compound, the “Selectivity Index MCF-7” value [2] was under 0.150, the IC50 [11] was over 250 µM and the IC50 [12] was 12.5 µM.
In the case of COc1ccc(C=Cc2cc(OC)c(OC)c(OC)c2)c(OC2OC(CO)C(O)C(O)C2O)c1O [Compound 5a, combretastatin A-1-2′-O-β-D-glucopyranoside], the CC50 at 48 h (in vitro [1]; [13]) is reported as 83.8 µg/mL (≈ 169 µM), the CC50 [2] is reported as 44.1 µg/mL (≈ 89.2 µM) and the “Selectivity Index MCF-7” value [2] is reported as 1.90.
